Experimental data taken from patent US9809623B2, “α4β7 peptide monomer and dimer antagonists” (Protagonist Therapeutics, Inc., priority 2014, dated 2017).
pIC50: −log10 of the molar value. Numbered stars: 1 amine (or outer) side, 2 acyl side, 3 side chain; on linkers, the order of the positions; unused ones are H or OH. Bridge positions count the residues as written; N and C are the ends. Square brackets hold non-standard residues; d marks the D form. Peptide text beside a SMILES is read from it. I, II: the chains in the order shown. Phe(2,4-Cl2) = N[C@@H](Cc1ccc(Cl)cc1Cl)C(=O)O; 1Nal = N[C@@H](Cc1cccc2ccccc12)C(=O)O; 2Nal = N[C@@H](Cc1ccc2ccccc2c1)C(=O)O; Diglycolyl = O=C(COCC(=O)[*:2])[*:1]; NMeR = CN[C@@H](CCCNC(=N)N)C(=O)O; Pen = CC(C)(S)[C@H](N)C(=O)O; hLeu = CC(C)CC[C@H](N)C(=O)O; Dab = NCC[C@H](N)C(=O)O

Target: α4β7 (Homo sapiens, UniProt P13612+P26010)
Assay: α4β7-MAdCAM Cell Adhesion Assay (RPMI 8866 human cells)
Type: cell-based
Design: host or cells: RPMI 8866 human B lymphoblastoid cells
Conditions: Table 3-B, Potency (α4β7); range classes; read-out: α4β7 cell (Hu) IC50
Procedure, shortened: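 Washed RPMI 8866 cells (200,000/well) in DMEM with 0.1% BSA, 10 mM HEPES pH 7, 1 mM MnCl2 adhered to rh MAdCAM-1/Fc-coated wells with serially diluted peptides, 30-45 min at 37 °C. After three washes, bound cells quantified by MTT, A570, cell-free background subtracted for dose response.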

Sequence of α4β7 (P13612 34-1032): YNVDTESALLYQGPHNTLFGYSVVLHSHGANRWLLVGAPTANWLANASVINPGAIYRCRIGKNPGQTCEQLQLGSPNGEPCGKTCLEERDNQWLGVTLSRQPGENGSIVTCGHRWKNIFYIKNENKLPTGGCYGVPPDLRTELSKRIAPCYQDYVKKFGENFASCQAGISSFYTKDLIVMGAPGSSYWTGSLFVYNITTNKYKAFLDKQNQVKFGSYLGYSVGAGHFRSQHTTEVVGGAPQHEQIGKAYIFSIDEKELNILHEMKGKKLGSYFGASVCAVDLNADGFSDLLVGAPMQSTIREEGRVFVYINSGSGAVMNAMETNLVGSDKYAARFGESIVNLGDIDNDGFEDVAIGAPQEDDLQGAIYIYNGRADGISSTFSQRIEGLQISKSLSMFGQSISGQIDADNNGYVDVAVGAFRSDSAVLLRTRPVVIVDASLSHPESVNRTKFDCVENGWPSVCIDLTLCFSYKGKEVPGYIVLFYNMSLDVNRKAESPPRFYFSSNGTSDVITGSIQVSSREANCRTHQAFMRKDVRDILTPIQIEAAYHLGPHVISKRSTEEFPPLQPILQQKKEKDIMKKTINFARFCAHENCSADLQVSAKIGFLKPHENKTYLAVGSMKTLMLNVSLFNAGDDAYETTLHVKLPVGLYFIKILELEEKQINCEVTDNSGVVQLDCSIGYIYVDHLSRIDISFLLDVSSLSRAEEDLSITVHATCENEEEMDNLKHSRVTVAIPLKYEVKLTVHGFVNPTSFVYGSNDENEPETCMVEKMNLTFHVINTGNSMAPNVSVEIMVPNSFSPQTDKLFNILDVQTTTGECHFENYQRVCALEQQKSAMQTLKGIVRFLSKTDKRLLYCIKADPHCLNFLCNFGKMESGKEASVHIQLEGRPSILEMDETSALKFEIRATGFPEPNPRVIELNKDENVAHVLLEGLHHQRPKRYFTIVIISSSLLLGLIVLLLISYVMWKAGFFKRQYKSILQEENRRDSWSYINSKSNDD
Sequence of α4β7 (P26010 20-798): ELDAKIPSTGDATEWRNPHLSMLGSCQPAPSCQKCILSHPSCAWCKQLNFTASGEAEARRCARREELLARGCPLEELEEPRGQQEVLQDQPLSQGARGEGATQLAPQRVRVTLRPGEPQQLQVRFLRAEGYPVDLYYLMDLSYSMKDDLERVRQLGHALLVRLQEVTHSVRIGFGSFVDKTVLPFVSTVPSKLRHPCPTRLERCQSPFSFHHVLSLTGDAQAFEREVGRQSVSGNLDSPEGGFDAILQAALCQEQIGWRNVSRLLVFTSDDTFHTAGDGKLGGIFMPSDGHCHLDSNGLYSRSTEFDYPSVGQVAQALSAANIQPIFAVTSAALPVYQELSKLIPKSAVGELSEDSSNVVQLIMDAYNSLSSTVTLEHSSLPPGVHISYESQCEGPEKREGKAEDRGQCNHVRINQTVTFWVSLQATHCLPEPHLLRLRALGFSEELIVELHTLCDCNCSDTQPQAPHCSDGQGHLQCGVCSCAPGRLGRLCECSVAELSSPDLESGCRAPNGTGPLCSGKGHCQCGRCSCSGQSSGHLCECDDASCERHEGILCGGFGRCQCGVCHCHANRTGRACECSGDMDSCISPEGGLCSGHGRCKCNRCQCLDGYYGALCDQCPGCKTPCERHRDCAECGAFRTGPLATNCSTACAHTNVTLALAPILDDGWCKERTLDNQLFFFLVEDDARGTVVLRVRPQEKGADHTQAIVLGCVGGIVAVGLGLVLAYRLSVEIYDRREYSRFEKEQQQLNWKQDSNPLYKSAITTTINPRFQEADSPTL

| Structure (SMILES) | pIC50 |
| --- | --- |
| CC(=O)N[C@@H]1C(=O)N(C)[C@@H](CCCNC(=N)N)C(=O)N[C@@H](CO)C(=O)N[C@@H](CC(=O)O)C(=O)N[C@@H]([C@@H](C)O)C(=O)N[C@@H](CC(C)C)C(=O)N[C@H](C(=O)N[C@@H](Cc2c[nH]c3ccccc23)C(=O)N[C@@H](CCC(=O)O)C(=O)N[C@@H](CCNC(=O)COCC(=O)NCC[C@H](NC(=O)[C@H](CCC(=O)O)NC(=O)[C@H](Cc2c[nH]c3ccccc23)NC(=O)[C@H]2NC(=O)[C@H](CC(C)C)NC(=O)[C@H]([C@@H](C)O)NC(=O)[C@H](CC(=O)O)NC(=O)[C@H](CO)NC(=O)[C@H](CCCNC(=N)N)N(C)C(=O)[C@@H](NC(C)=O)C(C)(C)SSC2(C)C)C(N)=O)C(N)=O)C(C)(C)SSC1(C)C [compound 97] (I: Ac-[Pen][NMeR]SDTL[Pen]WE[Dab]-NH2 / II: Ac-[Pen][NMeR]SDTL[Pen]WE[Dab]-NH2; disulfide I:1-I:7, II:1-II:7; linker I:10-II:10 via Diglycolyl) | > 8.00 |
| CC[C@H](C)[C@@H]1NC(=O)[C@H](CC(=O)O)NC(=O)[C@H](CO)NC(=O)[C@H](CCCNC(=N)N)N(C)C(=O)[C@@H](NC(C)=O)C(C)(C)SSC(C)(C)[C@@H](C(=O)N[C@@H](Cc2ccc(C(C)(C)C)cc2)C(=O)N[C@@H](CCC(=O)O)CC(=O)N[C@H](CCCCNC(=O)CN(CC(=O)NCCCC[C@@H](NC(=O)C[C@H](CCC(=O)O)NC(=O)[C@H](Cc2ccc(C(C)(C)C)cc2)NC(=O)[C@H]2NC(=O)[C@H](CC(C)C)NC(=O)[C@H]([C@@H](C)CC)NC(=O)[C@H](CC(=O)O)NC(=O)[C@H](CO)NC(=O)[C@H](CCCNC(=N)N)N(C)C(=O)[C@@H](NC(C)=O)C(C)(C)SSC2(C)C)C(N)=O)C(=O)CCN)C(N)=O)NC(=O)[C@H](CC(C)C)NC1=O [compound 186] | 6.30 to 7.00 |
| CC(=O)N[C@@H]1C(=O)N(C)[C@@H](CCCNC(=N)N)C(=O)N[C@@H](CO)C(=O)N[C@@H](CC(=O)O)C(=O)N[C@@H]([C@@H](C)O)C(=O)N[C@@H](CC(C)C)C(=O)N[C@H](C(=O)N[C@@H](Cc2cccc3ccccc23)C(=O)N[C@@H](C(=O)N[C@H](CCCCNC(=O)COCC(=O)NCCCC[C@@H](NC(=O)[C@H](NC(=O)[C@H](Cc2cccc3ccccc23)NC(=O)[C@H]2NC(=O)[C@H](CC(C)C)NC(=O)[C@H]([C@@H](C)O)NC(=O)[C@H](CC(=O)O)NC(=O)[C@H](CO)NC(=O)[C@H](CCCNC(=N)N)N(C)C(=O)[C@@H](NC(C)=O)C(C)(C)SSC2(C)C)[C@H](C)O)C(N)=O)C(N)=O)[C@H](C)O)C(C)(C)SSC1(C)C [compound 116] (I: Ac-[Pen][NMeR]SDTL[Pen][1Nal][dT][dK]-NH2 / II: Ac-[Pen][NMeR]SDTL[Pen][1Nal][dT][dK]-NH2; disulfide I:1-I:7, II:1-II:7; linker I:10-II:10 via Diglycolyl) | 7.00 to 7.30 |
| CC(=O)N[C@@H]1C(=O)N(C)[C@@H](CCCNC(=N)N)C(=O)N[C@@H](CO)C(=O)N[C@@H](CC(=O)O)C(=O)N[C@@H]([C@@H](C)O)C(=O)N[C@@H](CC(C)C)C(=O)N[C@H](C(=O)N[C@@H](Cc2c[nH]c3ccccc23)C(=O)N[C@H](Cc2ccccc2)C(=O)N[C@H](CCCCNC(=O)COCC(=O)NCCCC[C@@H](NC(=O)[C@@H](Cc2ccccc2)NC(=O)[C@H](Cc2c[nH]c3ccccc23)NC(=O)[C@H]2NC(=O)[C@H](CC(C)C)NC(=O)[C@H]([C@@H](C)O)NC(=O)[C@H](CC(=O)O)NC(=O)[C@H](CO)NC(=O)[C@H](CCCNC(=N)N)N(C)C(=O)[C@@H](NC(C)=O)C(C)(C)SSC2(C)C)C(N)=O)C(N)=O)C(C)(C)SSC1(C)C [compound 91] (I: Ac-[Pen][NMeR]SDTL[Pen]W[dF][dK]-NH2 / II: Ac-[Pen][NMeR]SDTL[Pen]W[dF][dK]-NH2; disulfide I:1-I:7, II:1-II:7; linker I:10-II:10 via Diglycolyl) | 6.30 to 7.00 |
| CC(=O)N[C@@H]1C(=O)N(C)[C@@H](CCCNC(=N)N)C(=O)N[C@@H](CO)C(=O)N[C@@H](CC(=O)O)C(=O)N[C@@H]([C@@H](C)O)C(=O)N[C@@H](Cc2ccc(O)cc2)C(=O)N[C@H](C(=O)N[C@@H](Cc2ccc3ccccc3c2)C(=O)N[C@H](CCC(=O)O)C(N)=O)C(C)(C)SSC1(C)C [compound 164] (Ac-[Pen][NMeR]SDTY[Pen][2Nal][dE]-NH2; disulfide 1-7) | 5.00 to 6.00 |
| CC(=O)N[C@@H]1C(=O)N(C)[C@@H](CCCNC(=N)N)C(=O)N[C@@H](CO)C(=O)N[C@@H](CC(=O)O)C(=O)N[C@@H]([C@@H](C)O)C(=O)N[C@@H](CC(C)C)C(=O)N[C@H](C(=O)N[C@H](Cc2ccccc2)C(=O)N[C@@H](CCC(=O)O)C(=O)N[C@H](CCCCNC(=O)COCC(=O)NCCCC[C@@H](NC(=O)[C@H](CCC(=O)O)NC(=O)[C@@H](Cc2ccccc2)NC(=O)[C@H]2NC(=O)[C@H](CC(C)C)NC(=O)[C@H]([C@@H](C)O)NC(=O)[C@H](CC(=O)O)NC(=O)[C@H](CO)NC(=O)[C@H](CCCNC(=N)N)N(C)C(=O)[C@@H](NC(C)=O)C(C)(C)SSC2(C)C)C(N)=O)C(N)=O)C(C)(C)SSC1(C)C [compound 30] (I: Ac-[Pen][NMeR]SDTL[Pen][dF]E[dK]-NH2 / II: Ac-[Pen][NMeR]SDTL[Pen][dF]E[dK]-NH2; disulfide I:1-I:7, II:1-II:7; linker I:10-II:10 via Diglycolyl) | 6.30 to 7.00 |
| CC(=O)N[C@@H]1C(=O)N(C)[C@@H](CCCNC(=N)N)C(=O)N[C@@H](CO)C(=O)N[C@@H](CC(=O)O)C(=O)N[C@@H]([C@@H](C)O)C(=O)N[C@@H](CC(C)C)C(=O)N[C@H](C(=O)N[C@@H](Cc2ccc(Cl)cc2Cl)C(=O)N[C@H](CCC(=O)O)C(=O)N[C@H](CCCCNC(=O)COCC(=O)NCCCC[C@@H](NC(=O)[C@@H](CCC(=O)O)NC(=O)[C@H](Cc2ccc(Cl)cc2Cl)NC(=O)[C@H]2NC(=O)[C@H](CC(C)C)NC(=O)[C@H]([C@@H](C)O)NC(=O)[C@H](CC(=O)O)NC(=O)[C@H](CO)NC(=O)[C@H](CCCNC(=N)N)N(C)C(=O)[C@@H](NC(C)=O)C(C)(C)SSC2(C)C)C(N)=O)C(N)=O)C(C)(C)SSC1(C)C [compound 101] (I: Ac-[Pen][NMeR]SDTL[Pen][Phe(2,4-Cl2)][dE][dK]-NH2 / II: Ac-[Pen][NMeR]SDTL[Pen][Phe(2,4-Cl2)][dE][dK]-NH2; disulfide I:1-I:7, II:1-II:7; linker I:10-II:10 via Diglycolyl) | 7.00 to 7.30 |
| CC(=O)N[C@@H]1C(=O)N(C)[C@@H](CCCNC(=N)N)C(=O)N[C@@H](CO)C(=O)N[C@@H](CC(=O)O)C(=O)N[C@@H]([C@@H](C)O)C(=O)N[C@@H](CC(C)C)C(=O)N[C@H](C(=O)N[C@@H](Cc2c[nH]c3ccccc23)C(=O)N2CCC[C@H]2C(=O)N[C@@H](CCCCNC(=O)COCC(=O)NCCCC[C@H](NC(=O)[C@@H]2CCCN2C(=O)[C@H](Cc2c[nH]c3ccccc23)NC(=O)[C@H]2NC(=O)[C@H](CC(C)C)NC(=O)[C@H]([C@@H](C)O)NC(=O)[C@H](CC(=O)O)NC(=O)[C@H](CO)NC(=O)[C@H](CCCNC(=N)N)N(C)C(=O)[C@@H](NC(C)=O)C(C)(C)SSC2(C)C)C(N)=O)C(N)=O)C(C)(C)SSC1(C)C [compound 95] (I: Ac-[Pen][NMeR]SDTL[Pen]WPK-NH2 / II: Ac-[Pen][NMeR]SDTL[Pen]WPK-NH2; disulfide I:1-I:7, II:1-II:7; linker I:10-II:10 via Diglycolyl) | 6.30 to 7.00 |
| CC(=O)N[C@@H]1C(=O)N(C)[C@@H](CCCNC(=N)N)C(=O)N[C@@H](CO)C(=O)N[C@@H](CC(=O)O)C(=O)N[C@@H]([C@@H](C)O)C(=O)N[C@@H](CC(C)C)C(=O)N[C@H](C(=O)N[C@@H](Cc2ccc3ccccc3c2)C(=O)N[C@H](Cc2ccccc2)C(=O)N[C@H](CCCCNC(=O)COCC(=O)NCCCC[C@@H](NC(=O)[C@@H](Cc2ccccc2)NC(=O)[C@H](Cc2ccc3ccccc3c2)NC(=O)[C@H]2NC(=O)[C@H](CC(C)C)NC(=O)[C@H]([C@@H](C)O)NC(=O)[C@H](CC(=O)O)NC(=O)[C@H](CO)NC(=O)[C@H](CCCNC(=N)N)N(C)C(=O)[C@@H](NC(C)=O)C(C)(C)SSC2(C)C)C(N)=O)C(N)=O)C(C)(C)SSC1(C)C [compound 117] (I: Ac-[Pen][NMeR]SDTL[Pen][2Nal][dF][dK]-NH2 / II: Ac-[Pen][NMeR]SDTL[Pen][2Nal][dF][dK]-NH2; disulfide I:1-I:7, II:1-II:7; linker I:10-II:10 via Diglycolyl) | 6.30 to 7.00 |
| CC(=O)N[C@@H]1C(=O)N(C)[C@@H](CCCNC(=N)N)C(=O)N[C@@H](CO)C(=O)N[C@@H](CC(=O)O)C(=O)N[C@@H](CCC(C)C)C(=O)N[C@@H](CC(C)C)C(=O)N[C@H](C(=O)N[C@@H](Cc2ccc3ccccc3c2)C(=O)N[C@H](CCC(=O)O)C(N)=O)C(C)(C)SSC1(C)C [compound 161] (Ac-[Pen][NMeR]SD[hLeu]L[Pen][2Nal][dE]-NH2; disulfide 1-7) | 5.00 to 6.00 |
